Source: patent publication US20260234144A1 (TAY THERAPEUTICS LIMITED, priority 2023, published 2026)

Assays:
[1] = test system: R223X stop codon in the mutated luciferase gene, ADXC8 luciferase reporter cell line; experiment: cells; format: cell-based; details: for Emax / EC (100% of 200 uM G418 response): 24 h; for Emax: read-out: Fold Over Control, maximum fold response relative to 200 μM G418; for Emax / EC (100% of 200 uM G418 response) / Fold Over Control / pC100%: ADXC8 cells, 24 hours; for EC (100% of 200 uM G418 response): read-out: pC100%, negative logarithm of the concentration giving the same response as 200 μM G418; for Fold Over Control: maximum fold response relative to 200 μM G418; for pC100%: negative logarithm of the concentration giving the same response as 200 μM G418
[2] = test system: R213X mutation in the p53 gene, HDQ-P1 cells; experiment: Read-through of R213X mutation in HDQ-P1 cells: truncated and full-length p53 by automated capillary electrophoresis western analysis; format: cell-based; details: Homo sapiens; for EC (50% of 200 uM G418 response): pC50% NMD: production of truncated p53, concentration giving 50% of the response of 200 μM G418, 24 h; for EC (100% of 200 uM G418 response): pC100% RT: production of full-length p53, concentration giving the same response as 200 μM G418, 24 h
Experimental: The ability of compounds to promote read-through in cells was assessed using the HDQ-P1 cell line which contain the R213X mutation in the p53 gene. […] Changes in the protein levels of p21, a direct downstream target of p53, were also determined as evidence of functional p53 protein production.
HDQ-P1 cells (R213X) were treated with DMSO (0.3%), or test article for 24 h at various concentrations. Cells were washed once with ice cold 1×PBS and lysed in M-Per protein extraction reagent (ThermoFisher), Benzonase® Nuclease and protease inhibitor mixture (Roche) centrifuged at 4° C. for 15 min at 16 000×g, the supernatants, termed cell extracts, were collected and total proteins were quantified with Bradford protein assay kit (ThermoFisher). Briefly, mixtures of cell lysates (protein concentration 0.5 mg/mL) and the fluorescent master mix were heated at 95° C. for 5 min. […] Signals were generated using BioTechne anti-mouse detection module and anti-rabbit NIR detection module. […] As an additional loading control, total protein levels were assessed with the ProteinSimple protein normalisation module. The data were acquired and analysed using the inbuilt Compass software (ProteinSimple) with the high dynamic range detection profile, which uses multiple substrate injections and exposure times. Electropherograms were converted to pseudo-blots and presented in figures for ease of visualization.
Concentration effect curves for both the production of truncated and full-length p53 were analysed using non-linear regression using the CDD Vault from Collaborative Drug Discovery (Burlingame, CA). […] The bottom and top of the curves were constrained to 0 and the maximum measured response respectively. From the fitted curves, the software derived C100% or C50% values (the concentration giving the same or 50% of the response of 200 μM G418) for each compound. The negative logarithm of C50% or C100% is reported as pC50% NMD or pC100% RT for the production of truncated or full-length p53 respectively (Table 2).

| SMILES | Emax [1] [%] | EC (100% of 200 uM G418 response) [1] [µM] | other results |
| --- | --- | --- | --- |
| CNc1nc(N[C@H]2CN(C)C[C@@H]2F)nc2nc3c(c(C)c12)CCC3 [Example 362] | 100 to 3000 | 1 to 10 | EC (50% of 200 uM G418 response) [2]: 0.1 to 1 µM; EC (100% of 200 uM G418 response) [2]: 1 to 10 µM |
| Cc1c2c(nc3nc(NC4CCN(Cc5ccncc5)CC4)nc(N)c13)CCC2 [Example 651] | 100 to 3000 | 0.1 to 1 | EC (50% of 200 uM G418 response) [2]: 0.1 to 1 µM; EC (100% of 200 uM G418 response) [2]: 1 to 10 µM |
| CNc1nc(N[C@@H]2CCNC2)nc2nc(C)c3c(c12)CCC3 [Example 304] |  | 0.1 to 1 | EC (50% of 200 uM G418 response) [2]: 1 to 10 µM; EC (100% of 200 uM G418 response) [2]: 1 to 10 µM |
| CNc1nc(N[C@H]2CNC[C@H]2F)nc2nc3c(c(C)c12)CCC3 [Example 343] | 100 to 3000 | 0.1 to 1 | EC (50% of 200 uM G418 response) [2]: 1 to 10 µM; EC (100% of 200 uM G418 response) [2]: 1 to 10 µM |
| Cc1nc2nc(NC3CCN(Cc4cccc(F)c4O)CC3)nc(N)c2c2c1CCC2 [Example 531] | 100 to 3000 | 0.1 to 1 | EC (50% of 200 uM G418 response) [2]: 1 to 10 µM; EC (100% of 200 uM G418 response) [2]: 1 to 10 µM |
| CCNc1nc(N[C@@H]2CCN(C)C2)nc2nc(C)c3c(c12)CCC3 [Example 396] |  | 0.1 to 1 | EC (50% of 200 uM G418 response) [2]: 1 to 10 µM; EC (100% of 200 uM G418 response) [2]: 1 to 10 µM |
| CNc1nc(NCC2CN3CCC2C3)nc2nc(C)cc(C)c12 (centres unmarked) [Example 404] | 0 to 100 | > 31.6 |  |
| Cc1cc(C)c2c(N)nc(NCCN3CC(C(F)(F)F)C3)nc2n1 [Example 166] | 100 to 3000 | 10 to 100 |  |
| Cc1cc(C)c2c(N)nc(N[C@H]3CCNCC3(F)F)nc2n1 [Example 220] | 100 to 3000 | 1 to 10 |  |
| CNc1nc(N[C@H]2CN(C)C[C@@H]2O)nc2nc(C)c(C)c(C)c12 [Example 520, (3S,4S)-1-methyl-4-((5,6,7-trimethyl-4-(methylamino)pyrido[2,3-d]pyrimidin-2-yl)amino)pyrrolidin-3-ol] | 100 to 3000 | 0.1 to 1 |  |
| Cc1cc(C)c2c(NCCN3CCOCC3)nc(NC3CCN(C)CC3)nc2n1 [Example 357] | 100 to 3000 | 1 to 10 |  |
| CC(CO)c1cnc2nc(NC3CCN(C)CC3)nc(N)c2c1 (centres unmarked) [Example 286] | 0 to 100 | > 100 |  |
| CNc1nc(N[C@H]2CN(C)C[C@H]2O)nc2nc3c(c(C)c12)CCC3 [Example 361] | 100 to 3000 | 1 to 10 |  |
| CNc1nc(N[C@H]2CN(C3CCC3)C[C@@H]2O)nc2nc(C)cc(C)c12 [Example 624] | 100 to 3000 | 1 to 10 |  |
| CN1CCC(Nc2nc(N)c3ccc(-c4ccccc4)nc3n2)CC1 [Example 27, N^2-(1-methylpiperidin-4-yl)-7-phenylpyrido[2,3-d]pyrimidine-2,4-diamine] | 100 to 3000 | 1 to 10 |  |
| Cc1cc(C)c2c(N)nc(NCCNCC(F)(F)F)nc2n1 [Example 162] | 0 to 100 | > 31.6 |  |
| Cc1cc(C)c2c(N)nc(N[C@H]3CCNC[C@@H]3F)nc2n1 [Example 590] |  | 1 to 10 |  |
| Cc1cc(C)c2c(N)nc(NC3CCN(Cc4ccc(F)cc4)CC3)nc2n1 [Example 457] | 100 to 3000 | 0.1 to 1 |  |
| CN1CCC(Nc2nc(N)c3ccc(-c4ccc(F)cc4F)nc3n2)CC1 [Example 85] |  | 1 to 10 |  |
| Nc1nc(N)c2nc(-c3ccccc3)c(N)nc2n1 [triamterene, reference compound] | 0 to 100 | > 100 | pC100% response ([1]; assayed at a concentration of 300 μM, C100% = concentration giving the same response as 200 μM G418): not reached |
| Cc1cc(C)c2c(N)nc(N[C@@H]3CCN(Cc4ccc(C#N)cc4)C[C@@H]3F)nc2n1 [Example 575] | 100 to 3000 | 10 to 100 |  |
| Cc1cc(C)c2c(N)nc(NC3CC4(CNC4)C3)nc2n1 [Example 202] | 100 to 3000 | 10 to 100 |  |
| Cc1cc(C)c2c(NCc3ccncc3)nc(NC3CCN(C)CC3)nc2n1 [Example 319] | 0 to 100 | > 31.6 |  |
| CNc1nc(N[C@H]2CNC[C@@H]2C(F)(F)F)nc2nc(C)cc(C)c12 [Example 417] |  | 1 to 10 |  |
| Cc1cc(C)c2c(NCCS(C)(=O)=O)nc(NC3CCN(C)CC3)nc2n1 [Example 356] | 0 to 100 | > 31.6 |  |

| SMILES | Emax [1] [%] | EC (100% of 200 uM G418 response) [1] [µM] | other results |
| --- | --- | --- | --- |
| CCNc1nc(N[C@H]2CN(C)C[C@@H]2O)nc2nc(C)cc(C)c12 [Example 391] | 100 to 3000 | 0.1 to 1 |  |
| CNc1nc(N[C@H]2CN(C)C[C@H]2F)nc2nc(C)c(Br)c(C)c12 [Example 613] |  | 1 to 10 |  |
| CNc1nc(NC2C3CNC2C3)nc2nc(C)cc(C)c12 (single isomer, unassigned) [Example 447] |  |  | Fold Over Control [1]: ## (Fold over Ctrl > 1 ≤ 30); pC100% [1]: ++ (pC100% > 5.0 ≤ 6.0) |
| Cc1cc(C)c2c(NCCN(C)C)nc(NC3CCN(C)CC3)nc2n1 [Example 270] | 100 to 3000 | 1 to 10 |  |
| Cc1cc(C)c2c(N)nc(NC3CCN(Cc4cncs4)CC3)nc2n1 [Example 459] | 100 to 3000 | 1 to 10 |  |
| Cc1cc(C)c2c(N)nc(NC3CCN(Cc4cc[nH]n4)CC3)nc2n1 [Example 469] | 100 to 3000 | 10 to 100 |  |
| Cc1cc(C)c2c(N)nc(N[C@H]3CCCNC3)nc2n1 [Example 352] | 100 to 3000 | 10 to 100 |  |
| CNc1cc(N[C@@H]2CCNC2)nc2nc(C)cc(C)c12 [Example 256, (R)—N^4,5,7-trimethyl-N^2-(pyrrolidin-3-yl)-1,8-naphthyridine-2,4-diamine] |  | 0.1 to 1 |  |
| CNc1nc(N[C@H]2CN(C)C[C@H]2O)nc2nc(C)cc(C)c12 [Example 359] | 100 to 3000 | 10 to 100 |  |
| Cc1cc(C)c2c(NCc3cccnc3)nc(NC3CCN(C)CC3)nc2n1 [Example 318] | 0 to 100 | > 31.6 |  |
| Cc1cc(C)c2c(N)nc(NC3CCN(Cc4cccc(F)c4O)CC3)nc2n1 [Example 566] | 100 to 3000 | 0.1 to 1 |  |
| CNc1nc(NC2C3CNC2C3)nc2nc(C)cc(C)c12 (single isomer, unassigned) [Example 448] |  |  | Fold Over Control [1]: # (Fold over Ctrl ≥ 0 ≤ 1); pC100% [1]: * (pC100 ≤ 4.5) |
| Cc1cc(C)c2c(N)nc(NC3CCN(Cc4ccc(C(F)(F)F)cc4)CC3)nc2n1 [Example 456] | 100 to 3000 | 1 to 10 |  |
| CN1CCC(Nc2nc(N)c3ccc(-c4cnccn4)nc3n2)CC1 [Example 117] | 0 to 100 | > 100 |  |
| CNc1nc(N[C@@H]2CN[C@@H](C)C2)nc2nc(C)cc(C)c12 [Example 374] | 100 to 3000 | 10 to 100 |  |
| CN1CCC(Nc2nc(N)c3cc(CO)cnc3n2)CC1 [Example 123, {4-amino-2-[(1-methylpiperidin-4-yl)amino]pyrido[2,3-d]pyrimidin-6-yl}methanol] | 0 to 100 | > 100 |  |
| Cc1cc(C)c2c(N)nc(NC3CCN(Cc4cnco4)CC3)nc2n1 [Example 474] | 100 to 3000 | 10 to 100 |  |
| CC(=O)Nc1ccc(-c2ccc3c(N)nc(NC4CCN(C)CC4)nc3n2)cc1 [Example 73] | 0 to 100 | > 100 |  |
| CN1CCC(Nc2nc(N)c3c(N(C)C)ccnc3n2)CC1 [Example 307] | 0 to 100 | > 100 |  |
| Cc1cc(-c2ccccc2)nc2nc(NCCCN3CCOCC3)nc(N)c12 [Example 120, 5-methyl-N2-(3-morpholinopropyl)-7-phenylpyrido[2,3-d]pyrimidine-2,4-diamine] | 100 to 3000 | 1 to 10 |  |
| Cc1cc(C)c2c(N)nc(NCCN3CC4(CCOC4)C3)nc2n1 [Example 183] | 0 to 100 | > 31.6 |  |
| Cc1cc(C)c2c(N)nc(NCCCN(C)C)nc2n1 [Example 154] |  | 1 to 10 |  |
| Cc1cc(C2CC2)nc2nc(NC3CCN(C)CC3)nc(N)c12 [Example 601] |  | 1 to 10 |  |
| Cc1cc(C)c2c(N)nc(NCCN3CCOCC3)nc2n1 [Example 173] | 0 to 100 | > 31.6 |  |
| CN1CCC(Nc2nc(N)c3ccc(-c4ccn(C)n4)nc3n2)CC1 [Example 79] | 0 to 100 | > 100 |  |
